Like-named read-outs stand apart in the source and are kept apart here.
Columns and labels:
FGFR2 = FGFR2 (Homo sapiens (Human), UniProt P21802); assay: FGFR Enzymatic Assay (FRET peptide phosphorylation), FGFR2; format: biochemical
Procedure: (§1) The inhibitor potency of the exemplified compounds was measured in an enzyme assay that measures peptide phosphorylation using FRET measurements to detect product formation. Inhibitors were serially diluted in DMSO and a volume of 0.5 μL was transferred to the wells of a 384-well plate.
(§2) The enzymes were purchased from Millipore or Invitrogen.
(§3) GraphPad prism3 was used to analyze the data.

FGFR3 enzyme = FGFR3 enzyme (Homo sapiens (Human), UniProt P22607); assay: FGFR Enzymatic Assay (FRET peptide phosphorylation), FGFR3; format: biochemical; details: for FGFR1/FGFR3 IC50 ratio / FGFR4/FGFR3 IC50 ratio: FGFR3 selectivity; for IC50: read-out: FGFR3 IC50
Sequence of FGFR3 enzyme (P22607 23-806): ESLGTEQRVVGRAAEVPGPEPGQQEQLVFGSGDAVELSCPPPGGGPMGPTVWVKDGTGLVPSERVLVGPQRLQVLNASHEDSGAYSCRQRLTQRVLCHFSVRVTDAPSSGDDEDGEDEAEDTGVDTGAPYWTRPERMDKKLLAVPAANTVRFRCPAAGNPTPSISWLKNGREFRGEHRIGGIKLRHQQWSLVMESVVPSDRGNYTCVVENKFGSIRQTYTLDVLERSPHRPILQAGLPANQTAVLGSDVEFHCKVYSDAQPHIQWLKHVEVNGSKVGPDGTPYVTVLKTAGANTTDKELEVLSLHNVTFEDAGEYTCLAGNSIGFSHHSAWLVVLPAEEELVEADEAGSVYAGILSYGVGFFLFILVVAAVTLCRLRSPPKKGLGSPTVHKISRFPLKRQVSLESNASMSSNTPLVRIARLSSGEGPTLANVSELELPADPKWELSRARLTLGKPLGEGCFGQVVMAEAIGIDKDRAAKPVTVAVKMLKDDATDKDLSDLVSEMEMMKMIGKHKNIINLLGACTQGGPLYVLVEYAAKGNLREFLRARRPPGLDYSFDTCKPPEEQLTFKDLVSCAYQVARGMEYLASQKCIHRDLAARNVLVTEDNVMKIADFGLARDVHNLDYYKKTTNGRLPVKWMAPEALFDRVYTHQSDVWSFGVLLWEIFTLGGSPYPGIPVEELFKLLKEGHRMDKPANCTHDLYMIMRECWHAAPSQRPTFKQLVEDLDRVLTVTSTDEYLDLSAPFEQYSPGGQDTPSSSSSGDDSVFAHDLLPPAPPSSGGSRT
Procedure: as §1, §3

FGFR4 = FGFR4 (Homo sapiens (Human), UniProt P22455); assay: FGFR Enzymatic Assay (FRET peptide phosphorylation), FGFR4; format: biochemical; details: for FGFR1/FGFR4 IC50 ratio / FGFR2/FGFR4 IC50 ratio / FGFR3/FGFR4 IC50 ratio: FGFR4 selectivity
Sequence of FGFR4 (P22455 22-802): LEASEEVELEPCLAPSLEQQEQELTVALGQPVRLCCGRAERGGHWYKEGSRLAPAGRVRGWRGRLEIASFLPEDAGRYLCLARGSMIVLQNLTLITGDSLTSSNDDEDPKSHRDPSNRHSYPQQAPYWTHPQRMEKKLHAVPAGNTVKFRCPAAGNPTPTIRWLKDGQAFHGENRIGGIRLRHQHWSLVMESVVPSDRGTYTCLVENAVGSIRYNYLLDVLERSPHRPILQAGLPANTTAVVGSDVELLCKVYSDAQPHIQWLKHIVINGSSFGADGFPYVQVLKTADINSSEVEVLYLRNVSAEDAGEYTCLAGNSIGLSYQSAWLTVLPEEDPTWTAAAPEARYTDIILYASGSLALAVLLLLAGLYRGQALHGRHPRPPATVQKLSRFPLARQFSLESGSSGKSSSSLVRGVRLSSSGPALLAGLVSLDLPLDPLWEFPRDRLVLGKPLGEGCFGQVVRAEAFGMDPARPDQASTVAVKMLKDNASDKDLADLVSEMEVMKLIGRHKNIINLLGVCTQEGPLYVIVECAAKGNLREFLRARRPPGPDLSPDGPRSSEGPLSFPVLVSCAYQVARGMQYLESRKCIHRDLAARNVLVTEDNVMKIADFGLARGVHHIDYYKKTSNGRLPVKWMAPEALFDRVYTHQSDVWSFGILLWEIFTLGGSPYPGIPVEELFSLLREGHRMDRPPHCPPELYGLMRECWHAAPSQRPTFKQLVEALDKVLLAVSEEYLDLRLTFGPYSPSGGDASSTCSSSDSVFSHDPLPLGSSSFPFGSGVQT
Procedure: as §1, §2, §3

FGFR1 = FGFR1 (Homo sapiens (Human), UniProt P11362); assay: FGFR Enzymatic Assay (FRET peptide phosphorylation), FGFR1
Sequence of FGFR1 (P11362 22-822): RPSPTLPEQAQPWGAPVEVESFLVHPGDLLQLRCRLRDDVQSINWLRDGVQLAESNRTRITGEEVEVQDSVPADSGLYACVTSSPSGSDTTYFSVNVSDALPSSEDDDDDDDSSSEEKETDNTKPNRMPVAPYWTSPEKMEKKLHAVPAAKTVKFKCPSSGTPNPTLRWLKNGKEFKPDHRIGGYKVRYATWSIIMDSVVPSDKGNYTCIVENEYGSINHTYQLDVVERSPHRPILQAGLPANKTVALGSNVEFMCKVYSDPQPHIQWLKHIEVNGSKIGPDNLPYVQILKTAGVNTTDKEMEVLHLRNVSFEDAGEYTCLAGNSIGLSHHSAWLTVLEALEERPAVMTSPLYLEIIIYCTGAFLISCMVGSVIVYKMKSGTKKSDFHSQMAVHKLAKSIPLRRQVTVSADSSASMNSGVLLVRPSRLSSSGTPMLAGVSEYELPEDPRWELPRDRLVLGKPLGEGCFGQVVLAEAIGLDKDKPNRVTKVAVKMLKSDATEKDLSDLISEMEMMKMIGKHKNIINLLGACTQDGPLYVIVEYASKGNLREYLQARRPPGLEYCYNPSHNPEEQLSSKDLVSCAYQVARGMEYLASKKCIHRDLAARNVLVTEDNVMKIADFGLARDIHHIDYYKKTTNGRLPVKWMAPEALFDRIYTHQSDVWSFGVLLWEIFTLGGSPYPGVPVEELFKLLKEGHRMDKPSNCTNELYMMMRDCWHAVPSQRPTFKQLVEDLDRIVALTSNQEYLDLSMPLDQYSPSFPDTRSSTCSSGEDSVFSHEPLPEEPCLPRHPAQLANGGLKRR

[1] = FGFR1 IC50 (nM), pre-incubated for 4 hours
[2] = pre-incubated for 5 to 10 minutes
[3] = read-out: FGFR1 IC50, pre-incubated for 5 to 10 minutes
[4] = read-out: FGFR1 IC50, pre-incubated for 4 hours

Sequence of FGFR2 (P21802 22-821): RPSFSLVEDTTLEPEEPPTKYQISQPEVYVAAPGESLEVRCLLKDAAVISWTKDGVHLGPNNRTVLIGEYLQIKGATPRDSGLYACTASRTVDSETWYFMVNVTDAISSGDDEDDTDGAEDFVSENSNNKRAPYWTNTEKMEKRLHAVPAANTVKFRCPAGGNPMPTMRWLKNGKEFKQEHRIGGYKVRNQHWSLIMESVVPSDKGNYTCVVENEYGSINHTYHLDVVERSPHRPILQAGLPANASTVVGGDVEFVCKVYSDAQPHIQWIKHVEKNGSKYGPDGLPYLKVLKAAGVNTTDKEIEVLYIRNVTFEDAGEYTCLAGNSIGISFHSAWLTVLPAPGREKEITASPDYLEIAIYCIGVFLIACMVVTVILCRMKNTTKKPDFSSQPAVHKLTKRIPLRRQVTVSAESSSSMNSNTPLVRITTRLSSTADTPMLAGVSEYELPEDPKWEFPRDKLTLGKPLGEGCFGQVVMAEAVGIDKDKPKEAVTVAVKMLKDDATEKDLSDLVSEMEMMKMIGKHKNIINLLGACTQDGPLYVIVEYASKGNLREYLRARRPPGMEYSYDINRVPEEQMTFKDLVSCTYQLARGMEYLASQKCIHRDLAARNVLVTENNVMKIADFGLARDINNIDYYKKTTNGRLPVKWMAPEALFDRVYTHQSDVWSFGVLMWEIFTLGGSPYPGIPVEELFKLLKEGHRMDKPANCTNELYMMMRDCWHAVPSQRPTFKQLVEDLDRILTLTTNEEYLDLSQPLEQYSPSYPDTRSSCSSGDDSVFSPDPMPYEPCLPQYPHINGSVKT

| Compound | IC50 (FGFR2; pre-incubated for 4 hours) [nM] | FGFR1/FGFR3 IC50 ratio (FGFR3 enzyme; pre-incubated for 4 hours) | FGFR4/FGFR3 IC50 ratio (FGFR3 enzyme; pre-incubated for 4 hours) | IC50 (FGFR3 enzyme; pre-incubated for 4 hours) [nM] | IC50 (FGFR4; pre-incubated for 4 hours) [nM] | IC50 (FGFR1; [1]) [nM] | IC50 (FGFR2; [2]) [nM] | IC50 (FGFR3 enzyme; [2]) [nM] | IC50 (FGFR4; [2]) [nM] | IC50 (FGFR1; [3]) [nM] | IC50 (FGFR3 enzyme) [nM] | FGFR1/FGFR4 IC50 ratio (FGFR4; [2]) | FGFR2/FGFR4 IC50 ratio (FGFR4; [2]) | FGFR3/FGFR4 IC50 ratio (FGFR4; [2]) | FGFR1/FGFR4 IC50 ratio (FGFR4; pre-incubated for 4 hours) | FGFR2/FGFR4 IC50 ratio (FGFR4; pre-incubated for 4 hours) | FGFR3/FGFR4 IC50 ratio (FGFR4; pre-incubated for 4 hours) | IC50 (FGFR1; [4]) [nM] |
| --- | --- | --- | --- | --- | --- | --- | --- | --- | --- | --- | --- | --- | --- | --- | --- | --- | --- | --- |
| COc1cc(OC)c(F)c(N2Cc3cnc(-c4cn(C)nc4C)cc3N(c3ccc(F)cc3)C2=O)c1F [Example 40, 3-(2,6-difluoro-3,5-dimethoxyphenyl)-7-(1,3-dimethyl-1H-pyrazol-4-yl)-1-(4-fluorophenyl)-3,4-dihydropyrido[4,3-d]pyrimidin-2(1H)-one] | < 10 | >10 | >10 | < 10 | 30 to 200 | 30 to 200 | – | – | – | – | – | – | – | – | – | – | – | – |
| COc1cc(N2C(=O)N(c3c(F)c(OC)cc(OC)c3F)Cc3cnc(-c4cn(C)nc4C)cc32)ccc1C#N [Example 81, 4-(3-(2,6-difluoro-3,5-dimethoxyphenyl)-7-(1,3-dimethyl-1H-pyrazol-4-yl)-2-oxo-3,4-dihydropyrido[4,3-d]pyrimidin-1(2H)-yl)-2-methoxybenzonitrile] | 10 to 30 | >5 | >10 | 10 to 30 | > 200 | 30 to 200 | – | – | – | – | – | – | – | – | – | – | – | – |
| COc1cc(OC)c(F)c(N2Cc3cnc(-c4cn(C)nc4C)cc3N(Cc3cnn(CC(F)F)c3)C2=O)c1F [Example 128, 3-(2,6-difluoro-3,5-dimethoxyphenyl)-1-((1-(2,2-difluoroethyl)-1H-pyrazol-4-yl)methyl)-7-(1,3-dimethyl-1H-pyrazol-4-yl)-3,4-dihydropyrido[4,3-d]pyrimidin-2(1H)-one] | – | – | – | – | – | – | < 10 | < 10 | 10 to 30 | < 10 | – | – | – | – | – | – | – | – |
| COc1cc(OC)c(F)c(N2Cc3cnc(-c4cc(N)ccc4C)cc3C3(CC3)C2=O)c1F [Example 1, 6′-(5-amino-2-methylphenyl)-2′-(2,6-difluoro-3,5-dimethoxyphenyl)-1′H-spiro[cyclopropane-1,4′-[2,7]naphthyridin]-3′(2′H)-one] | > 200 | – | – | – | 30 to 200 | – | > 200 | – | 30 to 200 | > 200 | > 200 | >25 | >25 | >50 | >25 | >25 | >25 | > 200 |
| COc1cc(OC)c(F)c(N2Cc3cnc(-c4cn(CC(=O)N5CCOCC5)nc4C)cc3C3(CC3)C2=O)c1F [Example 159, 2′-(2,6-difluoro-3,5-dimethoxyphenyl)-6′-(3-methyl-1-(2-morpholino-2-oxoethyl)-1H-pyrazol-4-yl)-1′H-spiro[cyclopropane-1,4′-[2,7]naphthyridin]-3′(2′H)-one] | 10 to 30 | >5 | >3 | 10 to 30 | 30 to 200 | 30 to 200 | – | – | – | – | – | – | – | – | – | – | – | – |
| COc1cc(OC)c(F)c(N2Cc3cnc(-c4cc(N)c(F)cc4C)cc3C3(CC3)C2=O)c1F [Example 2, 6′-(5-amino-4-fluoro-2-methylphenyl)-2′-(2,6-difluoro-3,5-dimethoxyphenyl)-1′H-spiro[cyclopropane-1,4′-[2,7]naphthyridin]-3′(2′H)-one] | > 200 | – | – | > 200 | 30 to 200 | – | > 200 | > 200 | 30 to 200 | > 200 | – | >10 | >10 | >10 | >10 | >10 | >10 | > 200 |
| COc1cc(OC)c(F)c(N2Cc3cnc(-c4cn(C)nc4C)cc3N(Cc3cncnc3)C2=O)c1F [Example 84, 3-(2,6-difluoro-3,5-dimethoxyphenyl)-7-(1,3-dimethyl-1H-pyrazol-4-yl)-1-(pyrimidin-5-ylmethyl)-3,4-dihydropyrido[4,3-d]pyrimidin-2(1H)-one] | < 10 | >5 | >5 | < 10 | 30 to 200 | 30 to 200 | – | – | – | – | – | – | – | – | – | – | – | – |
| CCN1C(=O)N(c2c(F)c(OC)cc(OC)c2F)Cc2cnc(-c3ccc(CC#N)cc3)cc21 [Example 180, 2-(4-(3-(2,6-difluoro-3,5-dimethoxyphenyl)-1-ethyl-2-oxo-1,2,3,4-tetrahydropyrido[4,3-d]pyrimidin-7-yl)phenyl)acetonitrile] | < 10 | >5 | >5 | < 10 | 10 to 30 | 30 to 200 | – | – | – | – | – | – | – | – | – | – | – | – |
| COc1cc(OC)c(F)c(N2Cc3cnc(-c4cn(C)nc4C)cc3N(c3cnn(C4CC4)c3)C2=O)c1F [Example 130, 1-(1-cyclopropyl-1H-pyrazol-4-yl)-3-(2,6-difluoro-3,5-dimethoxyphenyl)-7-(1,3-dimethyl-1H-pyrazol-4-yl)-3,4-dihydropyrido[4,3-d]pyrimidin-2(1H)-one] | 10 to 30 | >5 | >5 | 10 to 30 | 30 to 200 | 30 to 200 | – | – | – | – | – | – | – | – | – | – | – | – |
| COc1cc(OC)c(F)c(N2Cc3cnc(-c4cn(C)nc4C)cc3N(C3CCOC3)C2=O)c1F (centres unmarked) [Example 33, 3-(2,6-difluoro-3,5-dimethoxyphenyl)-7-(1,3-dimethyl-1H-pyrazol-4-yl)-1-(tetrahydrofuran-3-yl)-3,4-dihydropyrido[4,3-d]pyrimidin-2(1H)-one] | < 10 | >5 | >5 | < 10 | 30 to 200 | 30 to 200 | – | – | – | – | – | – | – | – | – | – | – | – |
| COc1cc(OC)c(F)c(N2Cc3cnc(-c4cnn(C5CCN(S(C)(=O)=O)C5)c4)cc3C3(CC3)C2=O)c1F (centres unmarked) [Example 147, 2′-(2,6-difluoro-3,5-dimethoxyphenyl)-6′-(1-(1-(methylsulfonyl)pyrrolidin-3-yl)-1H-pyrazol-4-yl)-1′H-spiro[cyclopropane-1,4′-[2,7]naphthyridin]-3′(2′H)-one] | < 10 | >10 | >3 | < 10 | < 10 | 10 to 30 | – | – | – | – | – | – | – | – | – | – | – | – |
| COc1cc(OC)c(F)c(N2Cc3cnc(-c4[nH]ncc4C#N)cc3C3(CC3)C2=O)c1F [Example 171, 5-(2′-(2,6-difluoro-3,5-dimethoxyphenyl)-3′-oxo-2′,3′-dihydro-1′H-spiro[cyclopropane-1,4′-[2,7]naphthyridine]-6′-yl)-1H-pyrazole-4-carbonitrile] | 30 to 200 | – | – | 30 to 200 | < 10 | 30 to 200 | – | – | – | – | – | – | – | – | >10 | >10 | >10 | – |
| COc1cc(OC)c(F)c(N2Cc3cnc(-c4cn(C)nc4C)cc3N(c3cn[nH]c3)C2=O)c1F [Example 129, 3-(2,6-difluoro-3,5-dimethoxyphenyl)-7-(1,3-dimethyl-1H-pyrazol-4-yl)-1-(1H-pyrazol-4-yl)-3,4-dihydropyrido[4,3-d]pyrimidin-2(1H)-one] | < 10 | >5 | >10 | < 10 | 30 to 200 | 10 to 30 | – | – | – | – | – | – | – | – | – | – | – | – |
| COc1cc(OC)c(F)c(N2Cc3cnc(-c4cn(C)nc4C)cc3N(c3ccc(F)c(F)c3)C2=O)c1F [Example 102, 3-(2,6-difluoro-3,5-dimethoxyphenyl)-1-(3,4-difluorophenyl)-7-(1,3-dimethyl-1H-pyrazol-4-yl)-3,4-dihydropyrido[4,3-d]pyrimidin-2(1H)-one] | 10 to 30 | >3 | >10 | 10 to 30 | 30 to 200 | 30 to 200 | – | – | – | – | – | – | – | – | – | – | – | – |
| COc1cc(OC)c(F)c(N2Cc3cnc(-c4cnn(CCN5CCOCC5)c4)cc3C3(CC3)C2=O)c1F [Example 157, 2′-(2,6-difluoro-3,5-dimethoxyphenyl)-6′-(1-(2-morpholinoethyl)-1H-pyrazol-4-yl)-1′H-spiro[cyclopropane-1,4′-[2,7]naphthyridin]-3′(2′H)-one] | < 10 | >5 | >3 | < 10 | < 10 | 10 to 30 | – | – | – | – | – | – | – | – | – | – | – | – |

Reference: patent publication US9708318B2, “Bicyclic heterocycles as FGFR4 inhibitors” (Incyte Corporation, priority 2015, dated 2017)
